Laboratory results as given in patent US11059789B2, “Isoquinoline-steroid conjugates and uses thereof” (priority 2018, dated 2021).
Structures can show the parent of a compound that is named as a salt.

How the values were obtained:
ROCK2 = ROCK2 (Homo sapiens (Human), UniProt O75116); assay: Kinase assay ROCK2; type: biochemical; details: HCl salt
Procedure: (§1) Inhibition of various kinases was assayed.

ROCK1 = ROCK1 (Homo sapiens (Human), UniProt Q13464); assay: Kinase assay ROCK1; type: biochemical; details: HCl salt
Procedure: as §1

PKA = PKA (Homo sapiens, UniProt P17612); assay: Kinase assay PKA; type: biochemical; details: HCl salt
Procedure: as §1

JAK1 = JAK1 (Homo sapiens (Human), UniProt P23458); assay: Kinase assay JAK1; type: biochemical; details: HCl salt
Procedure: as §1

JAK2 = JAK2 (Homo sapiens (Human), UniProt O60674); assay: Kinase assay JAK2; type: biochemical; details: HCl salt
JAK3 = JAK3 (Homo sapiens (Human), UniProt P52333); assay: Kinase assay JAK3; type: biochemical; details: HCl salt
Procedure: as §1

TYK2 = TYK2 (Homo sapiens (Human), UniProt P29597); assay: Kinase assay TYK2; type: biochemical; details: HCl salt
Procedure: as §1

IKKb = IKKb (Homo sapiens (Human), UniProt O14920); assay: Kinase assay IKKb; type: biochemical; details: HCl salt
Procedure: as §1

PKCh = PKCh (Homo sapiens (Human), UniProt P24723); assay: Kinase assay PKCh; type: biochemical; details: HCl salt
Procedure: as §1

PKCd = PKCd (Homo sapiens (Human), UniProt Q05655); assay: Kinase assay PKCd; type: biochemical; details: HCl salt
Procedure: as §1

PKCe = PKCe (Homo sapiens (Human), UniProt Q02156); assay: Kinase assay PKCe; type: biochemical; details: HCl salt
Procedure: as §1

AKT1 = AKT1 (Homo sapiens (Human), UniProt P31749); assay: Kinase assay AKT1; type: biochemical; details: HCl salt
Procedure: as §1

PTM = PTM assay; type: cell-based; details: HCl salt
Procedure: as §1

HTM = HTM assay; type: cell-based; details: HCl salt
Procedure: as §1

in vitro = type: cell-based
NFkB = NFkB assay; type: cell-based; details: HCl salt
Procedure: as §1

[1] = test system: Myeloperoxidase (MPO) activity; assay: Myeloperoxidase (MPO) activity after intravitreal LPS in mice; type: in vivo, C57Bl6 male mice; details: dosed at 0 and 6 hours
Procedure: Adult C57Bl6 male mice were injected with 2 ng of lipopolysaccharide (LPS) intravitreally. The mice were then dosed with vehicle, compounds or control treatments (0.07% w/w, 0.02% w/w or 0.007% w/w) at times 0 and 6 hours post-injection. Aqueous humor (AH) and vitreous humor (VH) was collected 24 hours after injection of LPS and assayed for MPO activity by ELISA. Data is a compilation of two separate experiments. Statistical analysis was carried out on GraphPad prism using a multiple comparisons 1-way ANOVA with uncorrected Dunn's test. Results are shown in FIG. 5 (aqueous humor) and FIG. 6 (vitreous humor). In FIG. 5 and FIG. 6, Dex refers to dexamethasone, Compound A refers to (S)-3-amino-2-(4-(hydroxymethyl)phenyl)-N-(isoquinolin-6-yl)propanamide, * refers to p<0.05, and ** refers to p<0.005. MPO levels correspond to levels of neutrophil infiltration. In the context of non-infectious inflammatory events, neutrophils cause robust levels of damage to tissues.

Sequence of JAK3 (P52333 whole entry, species assumed): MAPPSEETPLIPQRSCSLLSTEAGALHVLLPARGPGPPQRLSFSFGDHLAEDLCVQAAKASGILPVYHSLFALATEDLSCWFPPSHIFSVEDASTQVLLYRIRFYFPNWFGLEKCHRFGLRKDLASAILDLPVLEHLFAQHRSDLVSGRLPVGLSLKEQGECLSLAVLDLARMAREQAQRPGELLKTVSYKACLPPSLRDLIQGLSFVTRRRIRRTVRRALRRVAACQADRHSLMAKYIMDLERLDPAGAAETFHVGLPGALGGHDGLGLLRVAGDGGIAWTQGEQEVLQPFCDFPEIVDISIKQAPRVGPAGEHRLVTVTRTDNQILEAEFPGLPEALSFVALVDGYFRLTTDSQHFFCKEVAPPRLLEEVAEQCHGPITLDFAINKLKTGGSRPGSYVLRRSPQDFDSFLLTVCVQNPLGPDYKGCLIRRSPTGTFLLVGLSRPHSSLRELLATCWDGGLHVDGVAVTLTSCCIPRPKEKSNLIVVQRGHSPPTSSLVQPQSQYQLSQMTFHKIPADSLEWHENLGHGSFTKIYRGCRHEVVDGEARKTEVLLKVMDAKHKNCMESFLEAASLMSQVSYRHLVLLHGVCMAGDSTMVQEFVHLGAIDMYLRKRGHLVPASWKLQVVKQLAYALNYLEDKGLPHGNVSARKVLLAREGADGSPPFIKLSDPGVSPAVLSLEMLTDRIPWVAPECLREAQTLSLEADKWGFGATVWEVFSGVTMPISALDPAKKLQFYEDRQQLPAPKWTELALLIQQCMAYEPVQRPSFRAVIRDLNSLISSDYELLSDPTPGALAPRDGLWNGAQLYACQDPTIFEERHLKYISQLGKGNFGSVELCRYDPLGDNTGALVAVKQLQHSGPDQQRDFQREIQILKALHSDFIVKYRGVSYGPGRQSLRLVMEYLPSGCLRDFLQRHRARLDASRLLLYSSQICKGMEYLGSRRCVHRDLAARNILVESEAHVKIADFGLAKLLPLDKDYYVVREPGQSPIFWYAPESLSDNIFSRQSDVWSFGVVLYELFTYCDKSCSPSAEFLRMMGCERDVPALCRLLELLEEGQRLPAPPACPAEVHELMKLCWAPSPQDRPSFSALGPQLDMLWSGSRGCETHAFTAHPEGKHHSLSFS
Sequence of PKCe (Q02156 whole entry, species assumed): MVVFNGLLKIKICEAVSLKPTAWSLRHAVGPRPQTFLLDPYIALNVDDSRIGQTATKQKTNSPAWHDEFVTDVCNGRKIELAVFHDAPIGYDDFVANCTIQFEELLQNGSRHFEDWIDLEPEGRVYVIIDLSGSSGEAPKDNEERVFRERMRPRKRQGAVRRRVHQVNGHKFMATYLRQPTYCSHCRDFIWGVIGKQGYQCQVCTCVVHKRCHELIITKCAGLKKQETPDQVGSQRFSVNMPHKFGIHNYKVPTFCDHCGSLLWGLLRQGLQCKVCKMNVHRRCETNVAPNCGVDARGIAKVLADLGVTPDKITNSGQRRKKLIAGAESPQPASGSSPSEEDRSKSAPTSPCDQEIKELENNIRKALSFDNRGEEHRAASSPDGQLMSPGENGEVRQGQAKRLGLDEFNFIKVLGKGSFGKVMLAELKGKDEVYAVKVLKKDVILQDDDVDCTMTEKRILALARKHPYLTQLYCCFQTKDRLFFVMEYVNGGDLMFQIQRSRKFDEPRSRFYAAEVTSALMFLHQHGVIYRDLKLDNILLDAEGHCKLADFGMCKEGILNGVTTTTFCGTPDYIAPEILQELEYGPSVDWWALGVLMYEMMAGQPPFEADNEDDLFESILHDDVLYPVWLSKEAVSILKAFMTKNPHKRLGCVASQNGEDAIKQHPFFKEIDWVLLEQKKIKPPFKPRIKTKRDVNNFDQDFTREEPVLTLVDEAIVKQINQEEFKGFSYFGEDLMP
Sequence of JAK2 (O60674 whole entry, species assumed): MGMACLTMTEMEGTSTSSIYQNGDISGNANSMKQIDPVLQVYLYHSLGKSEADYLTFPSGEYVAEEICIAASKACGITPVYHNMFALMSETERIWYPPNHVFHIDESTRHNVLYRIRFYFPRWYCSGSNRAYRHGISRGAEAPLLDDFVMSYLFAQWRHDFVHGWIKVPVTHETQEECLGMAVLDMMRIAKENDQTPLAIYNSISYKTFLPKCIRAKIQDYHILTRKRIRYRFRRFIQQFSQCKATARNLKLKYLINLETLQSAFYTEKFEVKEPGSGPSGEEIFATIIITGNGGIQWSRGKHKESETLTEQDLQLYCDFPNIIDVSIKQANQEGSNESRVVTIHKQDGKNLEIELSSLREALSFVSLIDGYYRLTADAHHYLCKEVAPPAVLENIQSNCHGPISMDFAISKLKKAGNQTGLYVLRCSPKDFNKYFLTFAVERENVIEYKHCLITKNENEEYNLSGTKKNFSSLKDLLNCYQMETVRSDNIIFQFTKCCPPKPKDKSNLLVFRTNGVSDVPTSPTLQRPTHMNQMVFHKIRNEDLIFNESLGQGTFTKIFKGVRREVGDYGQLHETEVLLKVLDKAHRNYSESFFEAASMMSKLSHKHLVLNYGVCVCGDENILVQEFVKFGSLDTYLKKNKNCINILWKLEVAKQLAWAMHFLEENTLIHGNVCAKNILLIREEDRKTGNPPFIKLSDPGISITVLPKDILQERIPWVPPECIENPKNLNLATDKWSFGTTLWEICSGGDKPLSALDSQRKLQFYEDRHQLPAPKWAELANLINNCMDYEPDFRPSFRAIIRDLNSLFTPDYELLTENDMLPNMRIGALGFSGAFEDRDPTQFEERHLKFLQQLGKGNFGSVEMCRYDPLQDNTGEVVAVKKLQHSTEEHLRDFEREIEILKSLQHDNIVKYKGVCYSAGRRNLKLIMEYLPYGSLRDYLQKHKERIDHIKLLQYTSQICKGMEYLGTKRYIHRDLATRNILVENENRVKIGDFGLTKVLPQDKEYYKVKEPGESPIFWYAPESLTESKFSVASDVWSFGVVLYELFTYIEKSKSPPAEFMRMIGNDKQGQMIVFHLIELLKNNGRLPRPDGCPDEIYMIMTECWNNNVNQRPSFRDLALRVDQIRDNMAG
Sequence of JAK1 (P23458 whole entry, species assumed): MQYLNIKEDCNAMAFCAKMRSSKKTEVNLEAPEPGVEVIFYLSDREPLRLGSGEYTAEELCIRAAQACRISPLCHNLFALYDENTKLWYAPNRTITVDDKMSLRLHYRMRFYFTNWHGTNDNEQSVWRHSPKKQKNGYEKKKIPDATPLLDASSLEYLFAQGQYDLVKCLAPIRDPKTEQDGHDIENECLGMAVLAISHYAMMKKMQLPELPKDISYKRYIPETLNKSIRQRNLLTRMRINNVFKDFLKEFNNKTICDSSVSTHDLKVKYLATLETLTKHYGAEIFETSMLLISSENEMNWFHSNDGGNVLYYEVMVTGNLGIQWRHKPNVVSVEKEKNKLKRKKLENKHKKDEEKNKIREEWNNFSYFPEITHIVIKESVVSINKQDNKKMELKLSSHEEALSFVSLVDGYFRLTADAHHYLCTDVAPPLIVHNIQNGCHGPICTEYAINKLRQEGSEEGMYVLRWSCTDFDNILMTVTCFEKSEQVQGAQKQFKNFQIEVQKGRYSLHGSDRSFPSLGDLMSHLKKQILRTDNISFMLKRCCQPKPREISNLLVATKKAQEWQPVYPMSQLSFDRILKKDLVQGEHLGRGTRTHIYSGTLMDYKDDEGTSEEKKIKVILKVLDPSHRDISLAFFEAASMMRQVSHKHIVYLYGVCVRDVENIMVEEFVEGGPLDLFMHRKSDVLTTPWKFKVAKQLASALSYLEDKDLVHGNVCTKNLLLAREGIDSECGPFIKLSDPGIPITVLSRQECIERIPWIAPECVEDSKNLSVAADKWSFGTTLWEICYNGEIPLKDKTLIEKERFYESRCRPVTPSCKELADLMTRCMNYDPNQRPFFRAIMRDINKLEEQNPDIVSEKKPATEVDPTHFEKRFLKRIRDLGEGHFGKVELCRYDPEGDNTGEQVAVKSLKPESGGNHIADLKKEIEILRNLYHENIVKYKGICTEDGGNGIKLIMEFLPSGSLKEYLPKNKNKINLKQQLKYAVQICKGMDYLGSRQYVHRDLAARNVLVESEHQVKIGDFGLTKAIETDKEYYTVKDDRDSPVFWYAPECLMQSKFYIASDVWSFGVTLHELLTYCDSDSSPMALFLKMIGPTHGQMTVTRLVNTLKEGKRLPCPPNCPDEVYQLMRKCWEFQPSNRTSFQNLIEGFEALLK
Sequence of PKCd (Q05655 whole entry, species assumed): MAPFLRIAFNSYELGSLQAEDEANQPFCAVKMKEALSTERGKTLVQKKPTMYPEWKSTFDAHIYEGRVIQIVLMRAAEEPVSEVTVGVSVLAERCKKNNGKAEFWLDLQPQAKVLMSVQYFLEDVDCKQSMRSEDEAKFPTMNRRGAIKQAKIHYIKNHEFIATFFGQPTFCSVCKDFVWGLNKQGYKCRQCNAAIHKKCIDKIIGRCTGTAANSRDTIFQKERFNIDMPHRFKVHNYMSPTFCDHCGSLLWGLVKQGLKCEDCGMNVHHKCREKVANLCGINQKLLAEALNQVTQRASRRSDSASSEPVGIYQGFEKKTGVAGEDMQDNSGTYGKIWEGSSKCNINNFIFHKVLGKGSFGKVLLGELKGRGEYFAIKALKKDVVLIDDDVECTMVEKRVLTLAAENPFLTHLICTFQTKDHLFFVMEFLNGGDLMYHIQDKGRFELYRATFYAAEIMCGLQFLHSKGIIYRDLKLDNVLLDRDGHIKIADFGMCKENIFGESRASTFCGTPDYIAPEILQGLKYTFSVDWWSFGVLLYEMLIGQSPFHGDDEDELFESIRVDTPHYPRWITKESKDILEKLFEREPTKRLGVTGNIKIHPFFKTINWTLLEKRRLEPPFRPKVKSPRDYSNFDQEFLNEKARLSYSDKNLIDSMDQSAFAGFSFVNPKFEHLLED

Structure (SMILES) | IC50 (ROCK2) [nM] | IC50 (ROCK1) [nM] | IC50 (PKA) [nM] | IC50 (JAK1) [nM] | IC50 (JAK2) [nM] | IC50 (JAK3) [nM] | IC50 (TYK2) [nM] | IC50 (IKKb) [nM] | IC50 (PKCh) [nM] | IC50 (PKCd) [nM] | IC50 (PKCe) [nM] | IC50 (AKT1) [nM] | IC50 (PTM) [nM] | IC50 (HTM) [nM] | IC50 (in vitro) [nM] | IC50 (NFkB) [nM] | effect on myeloperoxidase activity in aqueous humor ([1]; aqueous humor 24 hours, FIG. 5) | effect on myeloperoxidase activity in vitreous humor ([1]; vitreous humor 24 hours, FIG. 6)
C[C@@H]1C[C@H]2[C@@H]3CCC4=CC(=O)C=C[C@]4(C)[C@@]3(F)[C@@H](O)C[C@]2(C)[C@@]1(O)C(=O)COC(=O)c1ccc(C(=O)OCc2ccc([C@@H](CN)C(=O)Nc3ccc4cnccc4c3)cc2)cc1 [Example 66, 4-((S)-3-amino-1-(isoquinolin-6-ylamino)-1-oxopropan-2-yl)benzyl (2-((8S,9R,10S,11S,13S,14S,16R,17R)-9-fluoro-11,17-dihydroxy-10,13,16-trimethyl-3-oxo-6,7,8,9,10,11,12,13,14,15,16,17-dodecahydro-3H-cyclopenta[a]phenanthren-17-yl)-2-oxoethyl) terephthalate dihydrochloride] | 26 | 36 | 117 | 50000 | 36200 | 43200 | 50000 | 50000 | 282 | 357 | 3610 | 1360 | 358 | 15 | 100000 | 55 | – | –
CC1(C)O[C@@H]2C[C@H]3[C@@H]4CCC5=CC(=O)C=C[C@]5(C)[C@@]4(F)[C@@H](O)C[C@]3(C)[C@]2(C(=O)COC(=O)CCC(=O)OCc2ccc([C@@H](CN)C(=O)Nc3ccc4cnccc4c3)cc2)O1 [Example 33] | 14 | 21 | 81 | 50000 | 42400 | 30100 | 50000 | 40100 | 145 | 142 | 1580 | 1240 | 75 | 4 | 55200 | 103 | inhibiting effect | inhibiting effect
